What was measured:
in vitro = conditions: human, hepatocytes
Source text: (§1) 5-hydroxy-omeprazole was quantified using LC-MS/MS.

[1] = test system: human cryopreserved hepatocytes; experiment: in vitro; conditions: human, hepatocytes
Source text: as §1

CYP2C19 = biological target: T1, CYP2C19 (Homo sapiens, UniProt P33261); experiment: Metabolic clearance in recombinant human cytochrome P450 CYP2C19; assay type: in vitro ADME; conditions: recombinant P450 0.5 nmol/mL, disappearance of parent compound; lower limit of assay resolution 17.6 μl/min/nmol P450
T1 construct: purchased Cypex, Dundee, UK
T1 sequence (P33261 whole entry): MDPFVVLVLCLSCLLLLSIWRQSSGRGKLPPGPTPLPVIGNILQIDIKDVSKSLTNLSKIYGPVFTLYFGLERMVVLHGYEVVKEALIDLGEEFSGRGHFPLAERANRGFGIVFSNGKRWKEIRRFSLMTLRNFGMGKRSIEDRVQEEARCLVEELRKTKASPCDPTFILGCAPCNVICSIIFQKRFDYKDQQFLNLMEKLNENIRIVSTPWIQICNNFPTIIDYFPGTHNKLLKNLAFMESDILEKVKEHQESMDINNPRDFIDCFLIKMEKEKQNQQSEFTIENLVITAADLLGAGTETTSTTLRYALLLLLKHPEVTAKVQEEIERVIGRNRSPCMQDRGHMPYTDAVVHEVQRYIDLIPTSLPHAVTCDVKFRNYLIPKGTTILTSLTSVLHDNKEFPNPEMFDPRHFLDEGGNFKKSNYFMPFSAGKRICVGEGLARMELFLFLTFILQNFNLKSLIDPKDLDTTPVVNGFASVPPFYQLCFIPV
Description: Incubations were carried out in triplicate.

CYP3A4 = CYP3A4 (Homo sapiens, UniProt P08684); experiment: Metabolic clearance in recombinant human cytochrome P450 CYP3A4; conditions: recombinant P450 1 nmol/mL, disappearance of parent compound; lower limit of assay resolution 17.6 μl/min/nmol P450
Chain of CYP3A4 (P08684 whole entry): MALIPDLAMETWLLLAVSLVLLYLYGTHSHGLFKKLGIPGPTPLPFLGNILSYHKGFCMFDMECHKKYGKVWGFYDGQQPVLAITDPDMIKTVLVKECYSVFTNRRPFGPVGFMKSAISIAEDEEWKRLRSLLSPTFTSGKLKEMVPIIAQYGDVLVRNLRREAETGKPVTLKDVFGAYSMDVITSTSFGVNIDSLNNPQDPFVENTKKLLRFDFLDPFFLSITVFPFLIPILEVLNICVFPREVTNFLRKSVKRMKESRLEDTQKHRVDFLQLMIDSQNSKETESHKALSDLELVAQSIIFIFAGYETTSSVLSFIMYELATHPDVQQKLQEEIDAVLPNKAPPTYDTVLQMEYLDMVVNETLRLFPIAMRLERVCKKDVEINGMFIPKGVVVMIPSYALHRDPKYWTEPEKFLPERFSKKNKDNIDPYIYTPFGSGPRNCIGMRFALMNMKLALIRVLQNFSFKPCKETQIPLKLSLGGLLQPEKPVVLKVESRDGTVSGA
Description: In order to evaluate the properties of the compounds according to the invention the compounds' intrinsic clearances in recombinant human cytochrome P450 (CYP) isoenzymes CYP1A2, CYP2C8, CYP2C19, CYP2D6, CYP3A4, and CYP3A5 were determined.
Incubations were carried out in triplicate. […] The intrinsic clearance was determined based on the rate of disappearance of parent compound. Pantoprazole, omeprazole and the deuterated analogues were determined by HPLC-UV. The lower limit of assay resolution based on experimental variability was 17.6 μl/min/nmol P450.

[2] = Metabolisation in liver microsomes (guinea pig); assay type: in vitro ADME; conditions: Guinee pig liver microsomes, 10 μM, 90 minutes incubation
Description: (§2) Pantoprazole or examples 1 or 2 (10 μM each) were incubated with liver microsomes (source: all from GenTest except Mini Pig from TEBU),incubation in 1 mg/ml protein, 100 mM Tris-HCl, pH 7.4, 1 mM NADPH2). Reaction was terminated after 90 minutes by liquid nitrogen, the parent compound was detected by HPLC (10 mM KH2PO4, pH 7.4, acetonitril gradient 20-44%).

[3] = test system: human cryopreserved hepatocytes; conditions: human, 60 min
Description: Following the evaluation of the metabolic clearance of the compounds according to the invention via P450 enzymes, the formation kinetics of the main metabolite identified in humans, i.e. M2 (5-(difluoromethoxy)-2-[[(3-methoxy-4-sulfate-2-pyridyl)-methyl]sulfinyl]-1H-benzimidazole) was determined. Because the generation of M2 involves the oxidation of the 4-methoxy-pyridyl group by CYP2C19 and subsequent conjugation with 3′-phosphoadenosine-5′-phosphosulfate (PAPS) by an unidentified sulphotransferase, human cryopreserved hepatocytes were used since both phase I and phase II enzymes are functional in this in vitro system.
M2 formation rate under these conditions was linear up to 60 min. The M2 formation rate was determined at nine different compound concentrations (0, 0.5, 1.0, 2.5, 5.0, 10.0, 25.0, 50.0 and 100 μMol/L) incubated in duplicate for 60 min at 37° C. M2 was quantified using LC-MS/MS. M2 isolated from human urine was used as an external standard. The concentration to reach the half-maximal formation rate (KM-value) and the maximal formation rate (Vmax) were obtained by non-linear regression analysis using the Michaelis-Menten equation. The intrinsic clearance (Clint) was obtained dividing Vmax over KM.

[4] = Metabolisation in liver microsomes (mini pig); assay type: in vitro ADME; conditions: 10 μM, 90 minutes incubation
Description: as §2

[5] = Metabolisation in liver microsomes (human); assay type: in vitro ADME; conditions: 10 μM, 90 minutes incubation
Description: as §2

[6] = Metabolisation in liver microsomes (mouse); assay type: in vitro ADME; conditions: 10 μM, 90 minutes incubation
Description: as §2

[7] = Metabolisation in liver microsomes (rat); assay type: in vitro ADME; conditions: 10 μM, 90 minutes incubation
Description: as §2

[8] = Metabolisation in liver microsomes (dog); assay type: in vitro ADME; conditions: 10 μM, 90 minutes incubation
Description: as §2

[9] = Metabolisation in liver microsomes (monkey); assay type: in vitro ADME; conditions: 10 μM, 90 minutes incubation
Description: as §2

Row | Compound | hepatocyte CLint (in vitro) [µL/min/1e6 cells] | % Σ Clint rac. Omeprazole [1] [%] | Contribution of CYP2C19 to the oxidative metabolism (CYP2C19) | Contribution of CYP3A4 to the oxidative metabolism (CYP3A4) | Percent of compound metabolized [2] [%] | Substrate concentrations at which formation of M2 appeared to be inhibited [3] | Percent of compound metabolized [4] [%] | Percent of compound metabolized [5] [%] | Percent of compound metabolized [6] [%] | Percent of compound metabolized [7] [%] | Percent of compound metabolized [8] [%] | Percent of compound metabolized [9] [%]
1 | COc1ccc2[nH]c([S+]([O-])Cc3ncc(C)c(OC)c3C)nc2c1 (racemic) [rac. Omeprazole, 5-methoxy-2-[(4-methoxy-3,5-dimethyl-2-pyridinyl)methylsulphinyl]-1H-benzimidazole, reference compound] | 2 | 100 | contribute to the oxidative metabolism | contribute to the oxidative metabolism | – | – | – | – | – | – | – | –
2 | COc1ccnc(C[S+]([O-])c2nc3ccc(OC(F)F)cc3[nH]2)c1OC (centres unmarked) [H-Pantoprazole, 5-difluoromethoxy-2-[(3,4-dimethoxy-2-pyridinyl)methylsulphinyl]-1H-benzimidazole, reference compound] | – | – | contribute to the oxidative metabolism | contribute to the oxidative metabolism | 78 | above 100 μM | 26 | 28 | 62 | 61 | 20 | 73

Source: patent US7601737B2, “Isotopically substituted proton pump inhibitors” (priority 2005, dated 2009)
